{
  "source": "patent US20250369031A1",
  "about": "“METHODS OF DETERMINING CERULOPLASMIN ACTIVITY AND APPLICATIONS THEREOF” (ACADEMIA SINICA, priority 2022, published 2025)",
  "format_in_all_cases": "biochemical",
  "key": {"serum oxidases [1]": {"test_system": "serum oxidases", "assay": "Library screening with serum, ESI-MS monitoring of oxidized products", "conditions": "acetate buffer pH 5.0, 37° C., 1 h", "protocol": "The chemical library dissolved in DMSO individually to give stock concentrations of 1 mg/mL. Each chemical was placed in individual well and incubated with serum sample in acetate buffer (0.1M, pH 5.0) at 37° C. for 1 h. Additional DMSO was provided to inhibit oxidase activity. High-resolution ESI mass spectra (Bruker Daltonics spectrometer) was utilized to monitor the oxidized products.\nTo screen for suitable compounds as Cp substrates for MS analysis, an approach of combinatorial library screening in primary MS analysis was used to find out oxidized products and their relationship with initial substrates. Briefly, a platform for rapidly and conveniently screening various small molecules was established. In the chemical library collection as obtained, including natural products, synthetic compounds and heterocyclic molecules, each member was parallelly incubated with a certain small amount of serum for a desired reaction time. After quenching each enzyme reaction, analysis of the reaction products with ESI-MS was performed. Hits with reliable, major, and distinct oxidized product peaks in ESI-MS analysis were selected for further studies (FIG. 1)."}, "serum oxidases [2]": {"test_system": "serum oxidases", "assay": "LC-MS/MS based serum oxidase activity assay", "experimental": "Samples were detected by LC-ESI-MS on a Velos Pro dual-pressure linear ion trap mass spectrometer (Thermo Fisher Scientific, San Jose, CA) equipped with an Ultimate 3000 RSLC system from Dionex (Dionex Corporation, Sunnyvale, CA), using a Xbridge C18 (HPLC column 1 mm×15 cm i.d., 3.5 μm particle size, 130 Å pore size). Briefly, the gradient employed was 50% buffer B at 5 min to 98% buffer B at 23 min with a flow rate of 50 μL/min, where buffer A was 0.1% formic acid/H2O and buffer B was 0.1% formic acid/acetonitrile. All spectra were acquired in the mass range m/z 200-2000. Electrospray voltage was maintained at 4.0 kV and capillary temperature was set at 275° C.\nThe stock solution of modified amino carbazoles (125 μM, 20 μL) were incubated with 5 μL of serum (estimate<10 nM of serum oxidases) in sodium acetate buffer (0.1M, pH 5.0, 5 μL) at 37° C. for 30 min. The serum oxidase oxidation was quenched by DMSO (90 μL), followed detection of LC-MS/MS.\nThe amount of the oxidized product was determined according to the area under the peak by integration. The specific Cp activity unit was calculated by the formula: Peak area of oxidized product MS2 ion/serum volume (μL).\nThe addition of DMSO was to quench the serum enzyme activity. After centrifugation, the supernatant of the mixture was detected by LC-MS/MS."}, "ceruloplasmin [3]": {"molecular_target": "T1, ceruloplasmin (Homo sapiens, UniProt P00450)", "T1 sequence (P00450 20-1065)": "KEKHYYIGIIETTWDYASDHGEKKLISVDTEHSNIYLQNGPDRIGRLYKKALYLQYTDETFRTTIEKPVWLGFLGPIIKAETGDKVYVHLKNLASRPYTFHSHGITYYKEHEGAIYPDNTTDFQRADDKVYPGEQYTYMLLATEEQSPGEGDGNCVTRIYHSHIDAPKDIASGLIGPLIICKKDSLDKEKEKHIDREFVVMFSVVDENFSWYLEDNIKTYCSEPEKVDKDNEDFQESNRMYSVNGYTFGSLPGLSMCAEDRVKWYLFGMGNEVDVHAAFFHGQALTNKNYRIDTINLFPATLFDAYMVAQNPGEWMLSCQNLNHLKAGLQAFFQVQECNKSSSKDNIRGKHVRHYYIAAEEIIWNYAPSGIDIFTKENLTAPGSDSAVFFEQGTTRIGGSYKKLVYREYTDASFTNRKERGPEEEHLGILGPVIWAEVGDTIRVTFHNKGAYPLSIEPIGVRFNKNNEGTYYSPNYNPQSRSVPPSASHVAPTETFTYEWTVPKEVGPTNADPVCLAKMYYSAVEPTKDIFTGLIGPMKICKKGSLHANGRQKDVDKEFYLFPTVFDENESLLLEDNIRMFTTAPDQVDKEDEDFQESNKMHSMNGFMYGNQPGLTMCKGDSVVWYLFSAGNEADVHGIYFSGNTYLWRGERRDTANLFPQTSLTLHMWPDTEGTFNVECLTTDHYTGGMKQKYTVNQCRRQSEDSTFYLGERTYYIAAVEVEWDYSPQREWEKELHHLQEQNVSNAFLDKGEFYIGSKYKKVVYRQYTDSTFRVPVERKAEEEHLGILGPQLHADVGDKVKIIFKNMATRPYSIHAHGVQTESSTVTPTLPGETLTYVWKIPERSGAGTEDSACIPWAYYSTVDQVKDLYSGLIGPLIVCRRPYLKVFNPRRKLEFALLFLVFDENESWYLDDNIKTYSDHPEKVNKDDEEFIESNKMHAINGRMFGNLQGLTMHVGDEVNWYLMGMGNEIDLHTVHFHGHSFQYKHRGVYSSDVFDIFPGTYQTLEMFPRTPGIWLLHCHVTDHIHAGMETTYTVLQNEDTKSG", "assay": "Ceruloplasmin spike-in experiment in normal serum, LC-MS/MS", "protocol": "To understand the relation between ceruloplasmin and serum oxidases and the reactivity of modified substrates and ceruloplasmin, spike-in experiment was performed. […] The assay was incubated at 37° C. for 30 mins, and quenching the reaction by DMSO. The final products were analyzed by LC-MS/MS."}, "ceruloplasmin [4]": {"molecular_target": "T1, ceruloplasmin", "assay": "Cp-depletion test (serum filtered to remove proteins larger than 100 kDa), LCMS", "parameters": "Ceruloplasmin is made in the liver and then secreted into the blood; from tissue; host or cells: serum / plasma (normal adult, newborn; Cp-depleted serum by 100 kDa filtration as comparison)", "conditions": "Cp-depleted serum 5 μL, 30 min, 37° C.", "protocol": "Normal adult serum and plasma were controls. After incubation, the DMSO quenched mixture were 100-folds diluted and detected by LCMS.\nThe Cp depletion serum was obtained by size selection method. Briefly, the centrifuge filter was applied in normal serum to eliminate those proteins larger than 100 kDa, including Cp (˜130 kDa)."}, "ceruloplasmin [5]": {"molecular_target": "T1, ceruloplasmin", "assay": "Cp activity in newborn plasma, LCMS", "parameters": "Ceruloplasmin is made in the liver and then secreted into the blood; from tissue; host or cells: serum / plasma (normal adult, newborn; Cp-depleted serum by 100 kDa filtration as comparison)", "conditions": "without dilution", "excerpt": "The DMSO quenched mixture were detected by LCMS without dilution."}, "ceruloplasmin [6]": {"molecular_target": "T1, ceruloplasmin", "assay": "Colorimetric methods for ceruloplasmin oxidative activity", "parameters": "Ceruloplasmin is made in the liver and then secreted into the blood; from tissue; host or cells: serum / plasma (normal adult, newborn; Cp-depleted serum by 100 kDa filtration as comparison)", "conditions": "serum volume small than 10 μL", "excerpt": "FIGS. 8A and 8B show the limitations of detection by current methods known in the art. […] The specific activity units of Cp are not reliable in lower volume of serum.\nThe limitations of current methods and available commercial kits were described. In current method, the colorimetric methods using p-phenylenediamine (PPD) and o-dianisidine dihydrochloride (ODD) as substrates are used for quantification of ceruloplasmin oxidative activity. […] The activity of ceruloplasmin were positively correlated to absorbance. However, the correlation of absorbance and serum volume small than 10 μL was poor (FIG. 8)."}},
  "data": [
    {"smiles": "NCCc1c[nH]c2ccc(O)cc12", "note": "[ACK-1000, Serotonin (or 5-Hydroxytryptamine)]", "values": [
      {"measurement": "products generated when reacting with serum oxidases", "setting": "serum oxidases [1]", "result": "specific oxidized products"}
    ]},
    {"smiles": "CCCCn1c2ccccc2c2cc(N)ccc21", "note": "[ACK-1001, 9-buyl-9H-carbazol-3-amine]", "values": [
      {"measurement": "products generated when reacting with serum oxidases", "setting": "serum oxidases [1]", "result": "specific oxidized products"}
    ]},
    {"smiles": "CCn1c2ccccc2c2cc(N)ccc21", "note": "[ACK-1006, 9-ethyl-9H-carbazol-3-amine]", "values": [
      {"measurement": "signal intensity of m/z transition of the oxidized product", "setting": "serum oxidases [2]; after 1000-fold dilution, serum less than 5 μL", "result": "> 10^3"},
      {"measurement": "reaction time at which oxidized product reached highest amount", "setting": "serum oxidases [2]; time-dependent assay", "result": 30, "unit": "min"},
      {"measurement": "oxidation of substrate by recombinant ceruloplasmin", "setting": "ceruloplasmin [3]", "result": "could be oxidized by recombinant ceruloplasmin"},
      {"measurement": "oxidized product detected with Cp depleted serum", "setting": "ceruloplasmin [4]", "result": "trace amount"},
      {"measurement": "LCMS signal of oxidized substrate in new born plasma", "setting": "ceruloplasmin [5]; new born plasma 5 μL, 30 min, 37° C.", "result": "> 10^5"},
      {"measurement": "signal of oxidative substrate in CP-depletion plasma compared with newborn plasma", "setting": "ceruloplasmin [5]", "result": "significantly lower"}
    ]},
    {"smiles": "COc1cc(-c2ccc(N)c(OC)c2)ccc1N.Cl.Cl", "note": "[o-dianisidine dihydrochloride (ODD), o-dianisidine dihydrochloride]", "values": [
      {"measurement": "correlation of absorbance and serum volume", "setting": "ceruloplasmin [6]", "result": "poor"}
    ]},
    {"smiles": "Nc1ccc(N)cc1", "note": "[p-phenylenediamine (PPD), p-phenylenediamine]", "values": [
      {"measurement": "correlation of absorbance and serum volume", "setting": "ceruloplasmin [6]", "result": "poor"}
    ]}
  ]
}
